Tests used:
[1] = tested on: mouse corneal epithelium abrasion; experiment: In vivo model of corneal wound healing
Method: (§1) The mouse corneal epithelium was removed using the AlgerBrush II (The Alger Company, Inc., Lago Vista, Tex.), and corneal abrasions were treated at 0 hours and 16 hours with peptide 95-122 (10^−5 M), or were left untreated in 0.9% sodium chloride (saline vehicle) Wound healing was monitored at 0, 16, and 24 hours using fluorescein staining and a camera-equipped inverted microscope. Data are represented as the percentage of wound closure at 16 hours and 24 hours and are expressed as means±SEM. The data are representative of at least 6 mice per group. *P<0.05 by unpaired t-test as compared to vehicle (0.9% sodium chloride) treated controls.
as §1, with “II,” for “II (The Alger Company, Inc., Lago Vista, Tex.),”, “0” for “0 hours”, “120-146WH (10^−8 M or 10^−6” for “95-122 (10^−5”, “vehicle control).” for “vehicle)”, “group. ***P<0.001,” for “group.”
(A) The epithelium of the mouse cornea was removed using the AlgerBrush II, and corneal abrasions were treated at 0 and 16 hours with HB-EGF (250 ng/ml), rCAP37 (250 ng/ml), or vehicle control (normal saline). Wound closure was monitored at 0, 16, 24, and 48 hours using fluorescein staining and a camera-equipped inverted microscope. Data are represented as the percentage of wound closure and are expressed as mean±SEM. The data are representative of at least 6 mice per group. The percentage of wound closure in response to treatment was compared to vehicle-treated controls by unpaired t-test, **P<0.01, *P<0.05. (B) Representative images of mouse corneal wounds are shown at 0, 16, 24, and 48 hours following treatment with vehicle, HB-EGF, and CAP37. Black dotted lines indicate the wound edge.
In vivo model of corneal wound healing: The in vivo model of wound healing was carried out using a disposable biopsy punch (2 mm, Miltex, York, Pa.) to demarcate the mouse cornea and a 0.5 mm burr using the AlgerBrush II (The Alger Company, Inc., Lago Vista, Tex.) to remove the corneal epithelium.
In vivo model of wound healing: Mice were anesthetized using ketamine (100 mg/kg; Bionichepharma, LLC., St. Lake Forrest, Ill.) and xylazine ([…]; Rompun; Bayer Corp., Shawnee Mission, Kans.), and the right cornea was wounded as follows. A disposable biopsy punch (2 mm, Miltex, York, Pa.) was used to demarcate the mouse cornea. The corneal epithelium was carefully removed within the 2 mm demarcated area with a 0.5 mm burr using the AlgerBrush II (The Alger Company, Inc., Lago Vista, Tex.). The corneal abrasions were treated at 0 and 16 hours with HB-EGF (250 ng/ml), rCAP37 (250 ng/ml), or vehicle control (0.9% sodium chloride, pH 5.5, Baxter, Deerfield, Ill.). Corneal abrasions were visualized using sterile fluorescein sodium ophthalmic strips USP (FLUORETS®, Chauvin Laboratory, Aubenas, France) dampened with sterile PBS. […] The areas of the open wound were quantitated using ImageJ software (US National Institutes of Health), and the results were reported as the percentage of wound closure.

[2] = tested on: Acinetobacter baumannii ATCC BAA-747; experiment: In vitro bactericidal assay, A. baumannii ATCC BAA-747 (FIGS. 10-11); assay type: cell-based; conditions: for reduction of CFU/ml: highest peptide concentration
Method: (§2) Each of the test peptides was used at 25, 12.5 6.25 and 3.12 μM. The gentamicin was used at 4 μg/ml. 1×10^6/ml Acinetobacter baumannii ATCC® BAA-747™ (American Type Culture Collection, Manassas, Va.) were incubated with the peptides, negative buffer control (tryptone saline), and positive control gentamicin for 60 minutes at pH 5.5. 50 μl aliquots were plated out on agar plates and incubated overnight. Colony forming units were counted after overnight incubation and CFU/ml calculated.
as §2, with “7.2.” for “5.5.”
For FIGS. 10-13, in vitro bactericidal assays were performed using a starting inoculum of 1×10^6 CFU/ml of the bacterial suspension. The CFU remaining at the end of the 60-180 minute incubation was determined, and the data was plotted as log reduction in CFU/ml.
In particular, each of the test peptides (CAP37 peptides 120-146WR, 120-146WH, and 95-122 (SEQ ID NOS:30, 31, and 26, respectively)) was used at 25, 12.5, 6.25, and 3.12 μM. Gentamicin was used at 4 μg/ml. 1×10^6/ml Acinetobacter baumannii ATCC® BAA-747™ or Pseudomonas aeruginosa ATCC® 27853™ (American Type Culture Collection, Manassas, Va.) were incubated with the peptides, negative buffer control (tryptone saline), and positive control gentamicin at pH 5.5 or 7.2. A 60 minute incubation was used for Acinetobacter baumannii ATCC® BAA-747™, while a 180 minute incubation was used for Pseudomonas aeruginosa ATCC® 27853™. 50 μl aliquots were plated out on agar plates and incubated overnight. Colony forming units were counted after overnight incubation and CFU/ml calculated.

## GTRCQVAGWGSWHSGGRLSRFPRFVNV (derivative of peptide of CAP37 protein) [Peptide 120-146WH]
[1]; peptide 10^−8 M or 10^−6 M at 0 and 16 hours, read at 16 and 24 hours
  amount of corneal wound healing vs vehicle, in words: significantly greater
[2]; pH 5.5, 60 minutes
  reduction of CFU/ml: ~4 logs
[2]; pH 7.2, 60 minutes
  reduction of CFU/ml: ~5.5 logs
[2]; peptide at 25 μM
  bactericidal activity, in words: highly active

## GTRCQVAGWGSWRSGGRLSRFPRFVNV (derivative of peptide of Homo sapiens CAP37 protein) [Peptide 120-146WR]
[2]; pH 5.5, 60 minutes
  reduction of CFU/ml: ~4 logs
[2]; pH 7.2, 60 minutes
  reduction of CFU/ml: ~5.5 logs
[2]; peptide at 12.5 μM
  bactericidal activity, in words: highly active
[2]; peptide at 25 μM
  bactericidal activity, in words: highly active

## LDREANLTSSVTILPLPLQNATVEAGTR (listed as Homo sapiens) [Peptide 95-122]
[1]; peptide 10^−5 M at 0 and 16 hours, read at 16 and 24 hours
  corneal wound closure, in words: promotes corneal wound healing in vivo
[2]; pH 5.5, 60 minutes, peptides 3.12-25 μM, gentamicin 4 μg/ml
  bactericidal activity, in words: not active
[2]; pH 7.2, 60 minutes, peptides 3.12-25 μM, gentamicin 4 μg/ml
  bactericidal activity, in words: not active

B1: CAP37: cationic antimicrobial protein of Mr 37 kDa; recombinant CAP37 produced in human embryonic kidney (HEK) 293 cells (protein)
chain: IVGGRKARPRQFPFLASIQNQGRHFCGGALIHARFVMTAASCFQSQNPGVSTVVLGAYDLRRRERQSRQTFSISSMSENGYDPQQNLNDLMLLQLDREANLTSSVTILPLPLQNATVEAGTRCQVAGWGSQRSGGRLSRFPRFVNVTVTPEDQCRPNNVCTGVLTRRGGICNGDGGTPLVCEGLAHGVASFSLGPCGRGPDFFTRVALFRDWIDGVLNNPGP
[1]; CAP37 250 ng/ml at 0 and 16 hours, at 16 hours
  reduction of corneal wound size: 71%
[1]; CAP37 250 ng/ml at 0 and 16 hours, by 24 hours
  corneal wound closure: 83%
